As a reminder, the IC50 is the concentration needed to halve the response being measured.

Results on 24 compounds are retold here after US5017604A, “Novel fenamic acid methyl hydroxamate derivatives having cyclooxygenase and 5-lipoxygenase inhibition” (Warner-Lambert Company, priority 1990, dated 1991).

Holding throughout (type): cell-based
The target of assay [1] is T1, 5-lipoxygenase (Rattus norvegicus, UniProt P12527).
T1 construct: host or cells: RBL-1 (rat basophilic leukemia) cells
T1 sequence (P12527 1-673): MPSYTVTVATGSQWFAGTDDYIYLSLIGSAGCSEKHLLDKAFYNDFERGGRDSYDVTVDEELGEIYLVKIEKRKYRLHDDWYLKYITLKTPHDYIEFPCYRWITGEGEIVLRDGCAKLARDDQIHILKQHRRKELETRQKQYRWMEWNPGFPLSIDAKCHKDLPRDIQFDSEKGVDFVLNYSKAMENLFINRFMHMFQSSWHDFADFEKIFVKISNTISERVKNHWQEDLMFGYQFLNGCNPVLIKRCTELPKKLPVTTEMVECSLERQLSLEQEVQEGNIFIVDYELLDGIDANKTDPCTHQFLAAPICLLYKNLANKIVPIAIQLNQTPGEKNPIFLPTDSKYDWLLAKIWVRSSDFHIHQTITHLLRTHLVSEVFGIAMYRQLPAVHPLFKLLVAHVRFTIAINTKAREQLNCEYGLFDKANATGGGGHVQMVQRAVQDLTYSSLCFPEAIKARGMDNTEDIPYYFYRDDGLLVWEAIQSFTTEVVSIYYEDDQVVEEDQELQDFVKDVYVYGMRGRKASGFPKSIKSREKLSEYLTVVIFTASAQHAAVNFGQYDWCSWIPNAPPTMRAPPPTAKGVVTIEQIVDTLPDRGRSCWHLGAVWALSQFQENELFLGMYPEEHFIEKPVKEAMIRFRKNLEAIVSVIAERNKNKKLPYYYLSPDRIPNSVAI
Nature of the assay: ARBL whole cell 5-lipoxygenase assay (RBL-1 cells, LTB4 formation by RIA). The conditions noted are these: RBL-1 whole cells; for inhibition at 10 µM / inhibition at 16 µM: read-out: ARBL % inhibition at the given micromolar concentration (LTB4 formation); for IC50: A23187 5 μM, read-out: ARBL IC50 (50% inhibition of LTB4 formation). As for the experimental part: (§1) ARBL/ARBC Whole Cell 5-Lipoxygenase and Cyclooxyqenase Assays
(§2) The rat basophilic leukemia cell line (RBL-1) was obtained from the American Type Culture Collection (Rockville, Md.).
(§3) Radioimmunoassay (RIA) kits for LTB4 and PGF2α determination were obtained from Amersham (Arlington Heights, Ill.) and Seragen (Boston, Mass.), respectively.
(§4) RBL-1 cells are grown in suspension culture in Eagle's minimum essential medium supplemented with 12% fetal bovine serum at 37° C. in an incubator supplied with air-5% carbon dioxide. Cells are harvested by centrifugation. They are washed with cold phosphate buffered saline pH 7.4 (PBS; NaCl, 7.1 g; Na2 HPO4, 1.15 g; KH2 PO4, 0.2 g; and KCl, 0.2 g/L). Cells are finally suspended in PBS containing 1.0 mM calcium at a density of 2×10^6 cells/mL. Cells are incubated with and without test agent (in DMSO) (1% DMSO is without effect on arachidonic acid metabolism) for 10 minutes at room temperature. Calcium inonophore A23187 (5 μM) is added and cells are incubated for 7 minutes at 37° C. The reaction is stopped by chilling the tubes on ice for 10 minutes. Cells are separated by centrifugation and the supernatant is stored at -20° . Aliquots (100 μL) are analyzed for LTB4 and PGF2α using radioimmunoassay kits as provided by the supplier.
(§5) Table 1 contains biochemical data obtained from this whole cell assay as IC50 s which are calculated as the concentration of test compound causing 50% inhibition of LTB4 or PGF2α formation or in percent inhibition at the given micromolar concentration. N at 10 or 16 is not active at 10 μmolar or 16 μmolar.

Assay [2] addresses T2, cyclooxygenase (Rattus norvegicus, UniProt Q63921).
T2 construct: host or cells: RBL-1 (rat basophilic leukemia) cells
T2 sequence (Q63921 27-602): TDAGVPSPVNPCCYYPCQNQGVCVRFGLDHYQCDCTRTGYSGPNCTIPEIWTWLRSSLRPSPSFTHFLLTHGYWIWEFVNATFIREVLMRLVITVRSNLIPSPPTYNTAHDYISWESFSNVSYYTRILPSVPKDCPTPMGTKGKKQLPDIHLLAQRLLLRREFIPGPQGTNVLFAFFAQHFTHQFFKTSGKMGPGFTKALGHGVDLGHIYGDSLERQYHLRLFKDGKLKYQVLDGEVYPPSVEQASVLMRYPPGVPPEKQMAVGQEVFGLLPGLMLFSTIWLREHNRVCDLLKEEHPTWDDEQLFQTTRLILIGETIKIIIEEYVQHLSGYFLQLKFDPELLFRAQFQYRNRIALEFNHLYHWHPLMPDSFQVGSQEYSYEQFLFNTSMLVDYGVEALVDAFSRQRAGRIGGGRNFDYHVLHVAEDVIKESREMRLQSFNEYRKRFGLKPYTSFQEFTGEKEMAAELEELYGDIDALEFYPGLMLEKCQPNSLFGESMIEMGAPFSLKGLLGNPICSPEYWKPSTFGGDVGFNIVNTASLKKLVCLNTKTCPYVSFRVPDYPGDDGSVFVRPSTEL
Nature of the assay: ARBC whole cell cyclooxygenase assay (RBL-1 cells, PGF2α formation by RIA). The arrangement: key: N @ 10 μmolar is not active at 10 μmolar. The note with it: RBL-1 whole cells; @ 10 μM. As for the experimental part: as §1, §2, §3
as §4, with “supplier. […]” for “supplier.”

The target of assay [3] is T2, cyclooxygenase. Described as above. The note with it: RBL-1 whole cells; for IC50: A23187 5 μM, read-out: ARBC IC50 (50% inhibition of PGF2α formation). As to the method: as §1, §2, §3, §4, §5
The target in assay [4] is T2, cyclooxygenase. The assay is described as above. The note with it: RBL-1 whole cells; @ 16 μM. Set-up: key: N @ 16 μmolar is not active at 16 μmolar. As for the experimental part: as §1, §2, §3, §4, §5
The target of assay [5] is T1, 5-lipoxygenase. Nature of the assay: ARBL whole cell 5-lipoxygenase assay (RBL-1 cells, LTB4 formation by RIA). The arrangement: key: N @ 10 μmolar is not active at 10 μmolar. The note with it: RBL-1 whole cells; @ 10 μM. As to the method: as §1, §2, §3, §4, §5
For assay [6], the target named is T1, 5-lipoxygenase. Described as above. The note with it: RBL-1 whole cells; @ 16 μM. The arrangement: key: N @ 16 μmolar is not active at 16 μmolar. As for the experimental part: as §1, §2, §3, §4, §5
The mark [7] stands for this setting: read-out: ARBC % inhibition at the given micromolar concentration (PGF2α formation).

In the case of `COC(=O)c1ccccc1Nc1cccc(C(C)N(O)C(C)=O)c1Cl` (stereo not drawn) [Example 33, 2-[[3-[1-(acetylhydroxyamino)ethyl]-2-chlorophenyl]amino]benzoic acid methyl ester], the inhibition at 10 µM in assay [1] was found to be 100%. Also, the “ARBC activity (N = not active)” value in assay [2] is given as “N”.
Regarding `COC(=O)c1ccccc1Nc1cccc(CN(O)C(C)=O)c1C` [Example 34], the values for the IC50 in assay [1] and in assay [3] were less than 62.5 nM and 10000 nM, respectively.
On to `COC(=O)c1ccccc1Nc1cccc(C(C)N(O)C(C)=O)c1C` (stereo not drawn) [Example 35], for which the inhibition at 10 µM in assay [1] was 100%. Moreover, the “ARBC activity (N = not active)” value in assay [2] is on record as “N”.
On to `COC(=O)c1ccccc1Nc1c(C)ccc(C(C)N(O)C(C)=O)c1C` (stereo not drawn) [Example 36], for which the inhibition at 16 µM in assay [1] amounted to 100%. Moreover, the “ARBC activity (N = not active)” value in assay [4] is “N”.
Consider `COC(=O)c1ccccc1Nc1cccc(CN(O)C(C)=O)c1Cl` [Example 37], for which the IC50 amounted to 580 nM in assay [1] and 4300 nM in assay [3].
The corresponding values for `COC(=O)c1ccccc1Nc1c(Cl)ccc(CN(O)C(C)=O)c1Cl` [Example 38] are 360 nM and 6000 nM.
For `COC(=O)c1ccccc1Nc1c(Cl)ccc(C(C)N(O)C(C)=O)c1Cl` (stereo not drawn) [Example 39], the inhibition at 10 µM in assay [1] amounted to 100%; in assay [3] (setting [7]) it was 52%.
Take `CCOC(=O)N(O)Cc1cccc(Nc2ccccc2C(=O)OC)c1Cl` [Example 40, 2-[[2-chloro-3-[[(ethoxycarbonyl)hydroxyamino]methyl]phenyl]amino]benzoic acid, methyl ester]: the values for the IC50 in assay [1] and in assay [3] were 210 nM and 670 nM, respectively.
For `CCOC(=O)N(O)Cc1cccc(Nc2ccccc2C(=O)OC)c1C` [Example 41, 2-[[3-[[(Ethoxycarbonyl)hydroxyamino]methyl]-2-methylphenyl]amino]benzoic acid methyl ester], in that order: 390 nM and 8700 nM.
For `CCOC(=O)N(O)Cc1ccc(Cl)c(Nc2ccccc2C(=O)OC)c1Cl` [Example 42], in that order: 330 nM and 3700 nM.
Consider `CCOC(=O)N(O)C(C)c1ccc(C)c(Nc2ccccc2C(=O)OC)c1C` (stereo not drawn) [Example 43], for which, in assay [1], the inhibition at 16 µM turned out to be 100%. Also, in assay [4], the “ARBC activity (N = not active)” value is reported as “N”.
`CNC(=O)N(O)Cc1cccc(Nc2ccccc2C(=O)OC)c1C` [Example 44, 2-[[3-[[Hydroxy[(methylamino)carbonyl]amino]methyl]-2-methylphenyl]amino]benzoic acid methyl ester]: the inhibition at 16 µM in assay [1] is more than 95%; in assay [3] (setting [7]) it was 43%.
In the case of `CNC(=O)N(O)Cc1cccc(Nc2ccccc2C(=O)OC)c1Cl` [Example 46, 2-[[2-Chloro-3-[[hydroxy[(methylamino)carbonyl]amino]methyl]phenyl]amino]benzoic acid methyl ester], the values for the IC50 in assay [1] and in assay [3] were 360 nM and 4700 nM, respectively.
For `CC(=O)N(O)C(C)c1cccc(Nc2ccccc2C(=O)O)c1Cl` (stereo not drawn) [Example 47], the inhibition at 10 µM in assay [3] (setting [7]) came to 79%. Moreover, in assay [5], the “ARBL activity (N = not active)” value is “N”.
As to `CC(=O)N(O)Cc1cccc(Nc2ccccc2C(=O)O)c1C` [Example 48], the 50% inhibitory concentration (IC50) in assay [3] worked out at 1900 nM. Also, the “ARBL activity (N = not active)” value in assay [5] is reported as “N”.
Turning to `CCOC(=O)N(O)Cc1cccc(Nc2ccccc2C(=O)O)c1C` [Example 49], the “ARBL activity (N = not active)” value in assay [6] is listed as “N”. For the same compound, the inhibition at 0.25 µM in assay [3] (@ 0.25 μM, read-out: ARBC % inhibition at the given micromolar concentration (PGF2α formation)) came out at 67%.
In the case of `CNC(=O)N(O)Cc1cccc(Nc2ccccc2C(=O)O)c1C` [Example 50], in assay [6], the “ARBL activity (N = not active)” value is on record as “N”. For the same compound, the inhibition at 16 µM in assay [3] (setting [7]) worked out at 56%.
`CC(=O)N(O)C(C)c1cccc(Nc2ccccc2C(=O)O)c1C` (stereo not drawn) [Example 51]: in assay [6], the “ARBL activity (N = not active)” value is listed as “N”. Also, in assay [3] (setting [7]), the inhibition at 10 µM was found to be 70%.
Consider `CC(=O)N(O)C(C)c1ccc(C)c(Nc2ccccc2C(=O)O)c1C` (stereo not drawn) [Example 52], for which the “ARBC activity (N = not active)” value in assay [4] is recorded as “N”. In addition, the “ARBL activity (N = not active)” value in assay [6] was “N”.
Regarding `CCOC(=O)N(O)C(C)c1ccc(C)c(Nc2ccccc2C(=O)O)c1C` (stereo not drawn) [Example 53], in assay [6], the “ARBL activity (N = not active)” value is recorded as “N”. In assay [3] (setting [7]), the inhibition at 16 µM turned out to be 53%.
Turning to `CC(=O)N(O)Cc1cccc(Nc2ccccc2C(=O)O)c1Cl` [Example 54], in assay [3] (setting [7]), the inhibition at 10 µM amounted to 87%. Moreover, the “ARBL activity (N = not active)” value in assay [5] is reported as “N”.
`CC(=O)N(O)Cc1ccc(Cl)c(Nc2ccccc2C(=O)O)c1Cl` [Example 55]: the inhibition at 10 µM in assay [3] (setting [7]) came to 83%. Also, in assay [5], the “ARBL activity (N = not active)” value is listed as “N”.
Consider `CCOC(=O)N(O)Cc1ccc(Cl)c(Nc2ccccc2C(=O)O)c1Cl` [Example 56], for which the inhibition at 16 µM in assay [1] came to 47%; in assay [3] (setting [7]), 89%.
Regarding `CC(=O)N(O)C(C)c1ccc(Cl)c(Nc2ccccc2C(=O)O)c1Cl` (stereo not drawn) [Example 57], in assay [3] (setting [7]), the inhibition at 10 µM amounted to 53%. The “ARBL activity (N = not active)” value in assay [5] was “N”.
